Here are results for one molecule from BindingDB's records for patent US12226405 (Novartis, 2025).

Each structure is given as a SMILES string.

The assay deals with Endothelial PAS domain-containing protein 1 (Homo sapiens, UniProt Q99814). Nature of the assay: Scintillation Proximal Assay (SPA). As to the method:
Compounds (tested using a 14-point dose response with 3-fold compound dilutions from 100 μM to 60 pM) were pre-incubated for 30 min with HIF2α PAS-B domain (236-350, biotinylated on the N-terminus), before addition of the radio-ligand. […] Duplicates were made using 2 different plates, and mean IC50 values were determined using the Helios system based on the following equation: % inhibition=[(high control−sample)/(high control−low control)]×100. The IC50 values in the Tabulated HIF2α activities are the average from 1 to 10 independent experiments.

Endothelial PAS domain-containing protein 1, sequence (Q99814 whole entry, the tested form may be a part): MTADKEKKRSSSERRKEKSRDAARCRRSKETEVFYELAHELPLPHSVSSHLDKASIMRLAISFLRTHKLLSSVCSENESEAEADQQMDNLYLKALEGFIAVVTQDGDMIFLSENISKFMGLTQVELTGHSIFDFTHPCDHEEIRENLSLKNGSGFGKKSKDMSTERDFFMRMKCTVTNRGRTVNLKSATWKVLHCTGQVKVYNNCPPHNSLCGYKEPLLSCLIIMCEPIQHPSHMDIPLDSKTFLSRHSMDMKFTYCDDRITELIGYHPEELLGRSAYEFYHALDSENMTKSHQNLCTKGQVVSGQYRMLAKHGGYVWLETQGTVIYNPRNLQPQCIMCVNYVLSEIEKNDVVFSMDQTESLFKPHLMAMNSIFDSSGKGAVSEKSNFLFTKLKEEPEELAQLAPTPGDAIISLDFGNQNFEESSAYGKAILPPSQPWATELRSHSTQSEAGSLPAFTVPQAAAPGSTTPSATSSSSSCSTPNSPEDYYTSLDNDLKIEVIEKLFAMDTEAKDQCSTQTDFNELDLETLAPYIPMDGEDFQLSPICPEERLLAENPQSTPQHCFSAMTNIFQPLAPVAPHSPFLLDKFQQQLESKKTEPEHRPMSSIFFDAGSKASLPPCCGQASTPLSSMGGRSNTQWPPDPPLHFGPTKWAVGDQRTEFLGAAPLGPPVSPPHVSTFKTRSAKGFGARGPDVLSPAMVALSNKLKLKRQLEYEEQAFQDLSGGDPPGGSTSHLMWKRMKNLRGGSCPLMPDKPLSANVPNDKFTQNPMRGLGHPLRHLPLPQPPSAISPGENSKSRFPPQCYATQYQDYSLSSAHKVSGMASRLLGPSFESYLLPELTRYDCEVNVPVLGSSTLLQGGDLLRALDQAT

As usually defined, the IC50 is the concentration that gives 50% inhibition. As to `FC(F)OC1=CC(C(F)(F)F)=CN2C[C@@]3(CCc4cc(C(F)(F)F)ccc43)N=C12` [US12226405, Example 6], half-maximal inhibition (IC50) was put at 8 nM.
